Reference: patent US11634458B2, “Peptides and compositions for use in cosmetics and medicine” (LIPOTRUE, S.L., priority 2018, dated 2023)

Legend:
Assay type in all cases: cell-based
LAN cells = test: Measurement of acetylcholine release in differentiated LAN cells stimulated with 50 mM KCl; conditions: 1 hour treatment, 0.001, 0.005 and 0.01 mg/mL (Ac-SEQ ID NO: 8-NH2: 0.005 and 0.05 mg/mL)
Experimental: Said peptides were tested for their ability to modulate acetylcholine release in vitro. To that end, LAN cells were seeded on 48-well culture plates and allowed to reach the appropriate confluence under controlled conditions (37° C., 5% CO2) before inducing differentiation by replacing the culture media with Neurobasal® A media, supplemented with N-2 Supplement, GlutaMAX™, choline chloride and Leukemia Inhibition factor (GIBCO, Life technologies, MA, USA). Once the cells acquired its differentiated morphology, they were treated with the peptides mentioned above at the following concentrations for 1 hour: all peptides, except Ac-SEQ ID NO: 8-NH2, at 0.001 mg/mL, 0.005 mg/mL and 0.01 mg/mL; and peptide Ac-SEQ ID NO: 8-NH2 at 0.005 mg/mL and 0.05 mg/mL. Cells were then washed with HEPES, before stimulation of acetylcholine release by depolarization with external 50 mM KCl solution. Non-stimulated cells were incubated with non-depolarizing 4 mM KCl solution. After 30 minutes of incubation with the corresponding depolarizing or non-depolarizing KCl solution, cell supernatants were collected and used to measure acetylcholine levels with Amplex Red Acetylcholine Assay Kit (ThermoFisher Scientific, MA, USA). Cell pellets were used to determine protein content by BCA Protein Test Assay (Pierce BCA Protein Assay kit, ThermoFisher Scientific, MA, USA) (for data normalization purposes).
Percentage of acetylcholine release inhibition was calculated considering 100% release for the positive control (non-treated stimulated with KCl cells).

[1] = tested on: human skeletal muscle myocytes; test: Gene expression modulation in skeletal muscle human myocytes (RTqPCR contractility gene panel); conditions: vs basal control
Experimental: Said peptides were tested to evaluate their capacity to modulate the expression of several genes related with muscle contraction and relaxation in human skeletal muscle myocytes (Lodish H, Berk A, Zipursky S L, et al. (2000), Molecular Cell Biology, 4th edition; Section 18.3 Myosin: The Actin Motor Protein, Nueva York, W. H. Freeman; Kuo, I Y, & Ehrlich, B E (2015), Signaling in Muscle Contraction, Cold Spring Harbor Perspectives in Biology, 7(2); RAPSN receptor associated protein of the synapse [Homo sapiens (human)], Gene ID in NCBI 5913; Blake D J, Tinsley J M, Davies K E (1996), Utrophin: a structural and functional comparison to dystrophin, Brain Pathol., 6(1):37-47; Barik A, Lu Y, Sathyamurthy A, et.al. (2014), LRP4Is Critical for Neuromuscular Junction Maintenance, The Journal of Neuroscience, 34(42), 13892-13905; Kim N, Stiegler A L, Cameron T O, Hallock P T, et.al. (2008), Lrp4 is a Receptor for Agrin and Forms a Complex with MuSK, Cell, 135(2), 334-342; Mahavadi S, Nalli A, Kumar D, et.al. (2014), Increased expression of caveolin-1 is associated with upregulation of the RhoA/Rho kinase pathway and smooth muscle contraction in diabetes (1110.11), The FASEB Journal, 28:1_supplement)). To that end, a contractility smart data gene panel was designed. Said contractility smart data gene panel analyses the expression of the genes related with muscular contraction and relaxation included in table 5.
Briefly, human skeletal muscle myoblasts were seeded in duplicate in 12-well culture plates at a density of 1×10^5 cells/well and maintained at standard culture conditions (37° C., 95% humidity, 5% CO2) for 48-72h. Myoblast differentiation to myocyte was then induced with specific differentiation media (SKM-D medium+1% Antibiotic-Antimycotic) and monitored for 7 more days. Differentiated cells were treated with 0.05 mg/mL of peptide Ac-SEQ ID NO: 5-NH2; or with 0.1 mg/mL of peptide Ac-SEQ ID NO: 10-NH2 for 24 hours; or with 0.05 and 0.5 mg/mL of peptide Ac-SEQ ID NO: 8-NH2 for 6h; or with 0.5 mg/mL of peptide Ac-SEQ ID NO: 8-NH2 for 24 h. Untreated cells were used as basal control. Cells were then lysed for RNA extraction with a RNA purification commercial kit following manufacturer instructions (RNeasy mini kit, Qiagen, Netherlands). RNA was then quantified by nanodrop, adjusted in concentration and processed for retrotranscription to cDNA using a commercially available kit (High-Capacity cDNA Reverse Transcription kit, Thermofisher Scientific, USA). Resulting cDNA was used to perform a RTqPCR (Real Time Quantitative Polymerase Chain Reaction) using taqman technology and a panel of probes designed to target the specific genes related to muscle contractility mentioned in table 4.

[2] = tested on: human skeletal muscle cells; test: Calcium mobilization assay (Fluo-4 NW) after 60 mM KCl; conditions: 48 hours, vs untreated control
Experimental: The potential of said peptide Ac-SEQ ID NO: 8-NH2 to reduce calcium mobilization on human skeletal muscle cells was evaluated in vitro with Fluo-4 NW Calcium Assay Kit (ThermoFisher Scientific, MA USA). Briefly, human skeletal muscle myoblasts were seeded in quintuplicates in a black 96-well plate, clear bottom, at a density of 1×10^4 cells/well and maintained at standard culture conditions (37° C., 95% humidity, 5% CO2) for 48-72h. Myoblast differentiation to myocyte was then induced with specific differentiation medium (SKM-D medium+1% a/a) and monitored for 7 more days. Differentiated cells were treated with non-cytotoxic concentrations of peptide Ac-SEQ ID NO: 8-NH2 (0.01 mg/mL, 0.05 mg/mL and 0.1 mg/mL) for additional 48 hours.
Once incubation was finished, cell culture medium was replaced by 100 μl of Dye loading solution and the plate was kept on the incubator for 30 minutes. Dye solution was then replaced by assay buffer prior to calcium measurement using FLUOstar Omega instrument (BMG Labtech, Germany). For appropriate kinetic measurement, a pre-stimulus phase of 10 seconds was set to determine the baseline signal before induction of calcium influx by addition of 60 mM KCl. Post-stimulus phase was set at 90 seconds, with readings every 0.1 seconds at 494/516 nm (excitation/emission).
The following steps were performed for data analysis: 1) Calculation of a mean kinetic curve for each condition; 2) determination of maximum fluorescent signal for each curve after stimulation with KCl; 3) calculation of the fold change increase versus baseline; 4) normalization of results obtained for each condition (each peptide concentration) versus the one obtained for the control (untreated cells).

Substance: Ac-His-Ala-Leu-Arg-Phe-Trp-NH2 [Ac-SEQ ID NO: 8-NH2]
- Result: modulation of acetylcholine release (LAN cells): Active in the modulation of
- CACNB1 gene expression ([1]; 0.05 mg/mL, 6 hours): downregulation
- LRP4 gene expression ([1]; 0.05 mg/mL, 6 hours): downregulation
- MYH1 gene expression ([1]; 0.05 mg/mL, 6 hours): downregulation
- UTRN gene expression ([1]; 0.05 mg/mL, 6 hours): downregulation
- ACTA1 gene expression ([1]; 0.5 mg/mL, 6 hours): downregulation
- CALM3 gene expression ([1]; 0.5 mg/mL, 6 hours): downregulation
- CAV1 gene expression ([1]; 0.5 mg/mL, 6 hours): downregulation
- SCN3A gene expression ([1]; 0.5 mg/mL, 6 hours): downregulation
- TNNC1 gene expression ([1]; 0.5 mg/mL, 6 hours): downregulation
- ATP2A gene expression ([1]; 0.5 mg/mL, 24 hours): upregulation
- RAPSN gene expression ([1]; 0.5 mg/mL, 24 hours): downregulation
- reduction of calcium influx ([2]; 0.01 mg/mL): −6%
- reduction of calcium influx ([2]; 0.05 mg/mL): −20%
- reduction of calcium influx ([2]; 0.1 mg/mL): −30%
